Measured values published in patent US20050197343A1, “Utilization of heteroarene carboxamide as dopamine-d3 ligands for the treatment of cns diseases” (priority 2002, published 2005).
Where two headings read alike, the source gives them in different places.

Columns and labels:
[1] = biological target: α1 receptors; assay: competitive experiment with the α1 selective radio ligand [3H]Prazosin; conditions: read-out: Ki values α1 (footnote d); pα1; competitive experiment with [3H]Prazosin
[2] = biological target: D3 receptor (Homo sapiens, UniProt P35462); assay: radio ligand binding assay, CHO cell membrane homogenates, [3H]Spiperon, D3; parameters: expressed in transfected cells; host or cells: CHO cells (membrane homogenates)
Experimental: The biological activities of the compounds of the invention were determined in radio ligand binding assays.

[3] = biological target: T1, serotonin receptor 5-HT1A (Sus scrofa, UniProt A0A4X1UTF5); assay: radio ligand binding, pig cortex membrane preparations, [3H]8-OH-DPAT
T1 sequence (A0A4X1UTF5 1-422): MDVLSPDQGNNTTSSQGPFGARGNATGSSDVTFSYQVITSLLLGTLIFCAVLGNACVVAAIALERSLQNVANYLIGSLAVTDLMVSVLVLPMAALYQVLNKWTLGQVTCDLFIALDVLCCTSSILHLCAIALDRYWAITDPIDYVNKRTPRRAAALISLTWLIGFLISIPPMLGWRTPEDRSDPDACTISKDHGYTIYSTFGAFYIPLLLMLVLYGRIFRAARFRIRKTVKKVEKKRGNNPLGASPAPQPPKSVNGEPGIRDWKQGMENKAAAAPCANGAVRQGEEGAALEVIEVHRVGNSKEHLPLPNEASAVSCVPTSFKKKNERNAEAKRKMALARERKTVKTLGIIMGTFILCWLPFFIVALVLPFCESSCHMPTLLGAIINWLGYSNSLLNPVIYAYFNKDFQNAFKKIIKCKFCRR

[4] = biological target: T2, serotonin receptor 5-HT2 (Sus scrofa, UniProt P50129); assay: radio ligand binding, pig cortex membrane preparations, [3H]Ketanserin with 10 μM Prazosin; conditions: p5-HT2; simultaneous incubation with 10 μM of Prazosin
T2 construct: cortex membrane preparations of a pig; from tissue; host or cells: pig cortex

[5] = hD3, average of 2-9 experiments in triplicate, read-out: Ki-values D3
[6] = read-out: Ki values 5-HT1A, p5-HT1A, [3H]8-OH-DPAT, average of 2 to 6 experiments

T2 sequence (P50129 whole entry): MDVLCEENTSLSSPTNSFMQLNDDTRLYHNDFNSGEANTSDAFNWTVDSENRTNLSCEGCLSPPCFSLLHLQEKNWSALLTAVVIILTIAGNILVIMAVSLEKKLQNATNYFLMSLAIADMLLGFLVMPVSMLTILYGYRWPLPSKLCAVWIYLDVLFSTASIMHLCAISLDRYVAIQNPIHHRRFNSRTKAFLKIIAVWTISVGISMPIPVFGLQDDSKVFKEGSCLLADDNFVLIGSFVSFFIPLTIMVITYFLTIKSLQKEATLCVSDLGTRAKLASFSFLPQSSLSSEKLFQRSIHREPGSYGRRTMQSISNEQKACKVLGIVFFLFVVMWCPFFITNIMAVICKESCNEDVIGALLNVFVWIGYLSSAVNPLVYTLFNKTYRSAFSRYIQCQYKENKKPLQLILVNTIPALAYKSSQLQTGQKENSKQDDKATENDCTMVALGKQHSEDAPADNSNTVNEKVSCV
D3 receptor, sequence (P35462 whole entry): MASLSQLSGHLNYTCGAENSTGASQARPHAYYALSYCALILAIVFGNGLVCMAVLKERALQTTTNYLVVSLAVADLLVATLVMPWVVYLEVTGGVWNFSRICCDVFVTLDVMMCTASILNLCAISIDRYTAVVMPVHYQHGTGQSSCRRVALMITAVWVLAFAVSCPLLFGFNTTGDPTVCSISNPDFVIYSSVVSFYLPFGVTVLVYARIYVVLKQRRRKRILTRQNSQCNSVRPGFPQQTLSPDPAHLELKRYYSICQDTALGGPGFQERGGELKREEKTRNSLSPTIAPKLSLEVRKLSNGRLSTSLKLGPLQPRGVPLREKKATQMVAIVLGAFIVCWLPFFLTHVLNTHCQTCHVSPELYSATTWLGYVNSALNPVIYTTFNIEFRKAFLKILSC

Row | SMILES | Ki [1] [µM] | Ki [2, 5] [µM] | Ki [3] [µM] | Ki [4] [µM] | Ki [2] [µM] | D3 affinity (in words) [2] | Ki [3, 6] [µM]
1 | O=C(NCCCCN1CCN(c2cccc(Cl)c2Cl)CC1)c1cc2ccccc2s1 [Example 2, N-4-(4-(2,3-dichlorophenyl)piperazine-1-yl)butyl-2-benzo[b]thiophenylcarbamide] | 0.37 |  |  |  |  |  | 
2 | O=C(NCCCCN1CCN(c2cccc(Cl)c2Cl)CC1)c1cc2ccccc2o1 [Example 4, N-4-(4-(2,3-dichlorophenyl)piperazine-1-yl)butyl-2-benzo[b]furanylcarbamide] | 0.16 | 0.0012 |  |  |  |  | 
3 | COc1ccccc1N1CCN(CCCCNC(=O)c2cc3ccccc3[te]2)CC1 [Example 8, N-4-(4-(2-methoxyphenyl)piperazine-1-yl)butyl-2-benzo[b]tellurophenylcarbamide] | 0.0035 |  | 0.069 | 0.42 | 0.00072 |  | 
4 | O=C(NCCCCN1CCN(c2cccc(Cl)c2Cl)CC1)c1cc2ccccc2[nH]1 [Example 10, N-4-(4-(2,3-dichlorophenyl)piperazine-1-yl)butyl-2-indolylcarbamide] | 0.22 | 0.00023 to 0.00057 | 0.61 |  |  | subnanomolar affinity | 
5 | COc1ccccc1N1CCN(CCCCNC(=O)c2cc3cc(Br)ccc3[nH]2)CC1 [Example 12, N-4-(4-(2-methoxyphenyl)piperazine-1-yl)butyl-5-bromo-2-indolylcarbamide] | 0.0064 | 0.00023 to 0.00057 | 0.44 | 0.28 |  |  | 
6 | COc1ccccc1N1CCN(CCCCNC(=O)c2cc3ccc(C#N)cc3[nH]2)CC1 [Example 13, N-4-(4-(2-methoxyphenyl)piperazine-1-yl)butyl-6-cyan-2-indolylcarbamide] | 0.0043 | 0.00023 to 0.00057 | 0.047 | 0.22 |  |  | 
7 | O=C(NCCCCN1CCN(c2cccc(Cl)c2Cl)CC1)c1cc2cc(Br)ccc2[nH]1 [Example 14, N-4-(4-(2,3-dichlorophenyl)piperazine-1-yl)butyl-5-brom-2-indolylcarbamide] | 0.5 |  |  | 0.69 |  |  | 1.6
8 | N#Cc1ccc2cc(C(=O)NCCCCN3CCN(c4cccc(Cl)c4Cl)CC3)[nH]c2c1 [Example 15, N-4-(4-(2,3-dichlorophenyl)piperazine-1-yl)butyl-6-cyano-2-indolylcarbamide] | 2 |  |  | 0.32 |  |  | 0.39
9 | COc1ccccc1N1CCN(CCCCNC(=O)c2cc3cc(C#N)ccc3s2)CC1 [Example 18, N-4-(4-(2-methoxyphenyl)piperazine-1-yl)butyl-5-cyano-2-benzo[b]thiophenylcarbamide] | 0.0029 |  | 0.054 | 0.58 |  |  | 
10 | N#Cc1ccc2sc(C(=O)NCCCCN3CCN(c4cccc(Cl)c4Cl)CC3)cc2c1 [Example 19, N-4-(4-(2,3-dichlorophenyl)piperazine-1-yl)butyl-5-cyan-2-benzo[b]thiophenylcarbamide] | 0.23 |  |  | 0.28 |  |  | 0.19
11 | COc1ccccc1N1CCN(CCCCNC(=O)c2cc3ccc(C#N)cc3s2)CC1 [Example 20, N-4-(4-(2-methoxyphenyl)piperazine-1-yl)butyl-6-cyano-2-benzo[b]thiophenylcarbamide] | 0.0083 | 0.00023 to 0.00057 | 0.071 | 0.66 |  |  | 
12 | COc1ccccc1N1CCN(CCCCNC(=O)c2cc3cc(Br)ccc3s2)CC1 [Example 22, N-4-(4-(2-methoxyphenyl)piperazine-1-yl)butyl-5-brom-2-benzo[b]thiophenylcarbamide] | 0.0025 |  |  | 0.76 |  |  | 0.18
13 | O=C(NCCCCN1CCN(c2cccc(Cl)c2Cl)CC1)c1cc2cc(Br)ccc2s1 [Example 23, N-4-(4-(2,3-dichlorophenyl)piperazine-1-yl)butyl-5-brom-2-benzo[b]thiophenylcarbamide] | 0.32 |  |  | 14 |  |  | 0.43
14 | N#Cc1ccc2[nH]c(C(=O)NCCCCN3CCN(c4cccc(Cl)c4Cl)CC3)cc2c1 [Example 25, N-4-(4-(2,3-dichlorophenyl)piperazine-1-yl)butyl-5-cyano-2-indolylcarbamide] | 0.22 |  |  | 0.22 |  |  | 0.19
